Results reported in PMC12698583, “Efficacy of sulfonamides targeting malic enzyme in an animal model of Chagas disease” (Frontiers in Pharmacology, 2025).

Experiments:
[1] = Caco-2 permeability assay; type: in vitro ADME; settings: human, Caco-2; apical to basolateral, 0.1 mM, 120 min
Method: (§1) Caco-2 cells (2.5 × 10^5) were cultured on 12 mm diameter filters with DMEM-PEST medium in an incubator at 37 °C and 10% CO2. Monolayer formation was monitored through transepithelial electrical resistance (TEER). […] The assay was conducted under orbital shaking at 37 °C. […] Compound quantification was performed using the HPLC-UV method, following the previously adjusted chromatographic conditions and parameters. At the end of the experiment, monolayer integrity was confirmed by measuring TEER.

Caco-2 cells = assay: Caco-2 permeability assay; type: in vitro ADME
Method: as §1

[2] = target: T. cruzi malic enzyme (TcME) (Trypanosoma cruzi, UniProt Q4DJ68); assay: Malic enzyme (TcME) inhibition assay, diaphorase/resazurin coupled; type: biochemical; settings: concentration necessary to inhibit 50% of T. cruzi Malic enzyme enzymatic activity
Chain of T. cruzi malic enzyme (TcME) (Q4DJ68 entry or part of it): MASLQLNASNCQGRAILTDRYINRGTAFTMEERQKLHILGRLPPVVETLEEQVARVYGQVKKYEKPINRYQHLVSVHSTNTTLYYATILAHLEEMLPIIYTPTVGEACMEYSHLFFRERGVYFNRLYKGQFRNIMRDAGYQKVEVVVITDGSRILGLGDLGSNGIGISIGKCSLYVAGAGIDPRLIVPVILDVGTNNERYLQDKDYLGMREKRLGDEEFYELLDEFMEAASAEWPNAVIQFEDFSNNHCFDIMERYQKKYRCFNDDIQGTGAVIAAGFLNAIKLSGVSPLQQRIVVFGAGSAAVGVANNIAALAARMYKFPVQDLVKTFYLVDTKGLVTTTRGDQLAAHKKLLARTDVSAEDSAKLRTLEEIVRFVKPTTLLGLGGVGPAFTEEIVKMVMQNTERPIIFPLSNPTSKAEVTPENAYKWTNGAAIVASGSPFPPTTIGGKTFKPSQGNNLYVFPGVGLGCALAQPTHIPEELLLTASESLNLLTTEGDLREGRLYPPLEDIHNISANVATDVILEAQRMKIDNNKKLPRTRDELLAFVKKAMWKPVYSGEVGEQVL
Method: The TcME inhibition assay was performed as previously described, with minor modifications ([Mercaldi et al., 2021]). Briefly, a coupled assay with the enzyme diaphorase and resorufin fluorescence (Ex 545 nm/Em 600 nm) was recorded every 30 s for 6 min in a CLARIOstar plate reader (BMG LabTech). The final concentrations of reagents in the assay were: 0.02 mM NADP+, 0.4 mM L-aspartate, 0.45 nM TcMEc, 1 U/mL diaphorase, and 10 μM resazurin, all in 50 mM Tris-HCl buffer containing 50 mM NaCl and 2 mM MnCl2 at pH 7.5. The reaction was initiated by adding 1.32 mM L-malate.

[3] = Metabolic stability in mouse liver microsomes; type: in vitro ADME; settings: for half-life at 1 μM: CD-1, pH 7.4, mouse liver microsomes, 0.25 mg/mL, read-out: T1/2 - mouse; for parent compound remaining: mouse microsomes
Method: (§2) The in vitro metabolic stability of the compound was evaluated in pooled human liver microsomes (HLM, 20 mg/mL), Sprague-Dawley rat liver microsomes (RLM, 20 mg/mL), and CD-1 mouse liver microsomes (MLM, 20 mg/mL), all purchased from GIBCO (Thermo Fisher Scientific). NADPH regenerating system (GentestTM) was prepared in potassium phosphate buffer (100 mM, pH 7.4). […] The reaction was stopped by adding acetonitrile, followed by vortex homogenization, sonication for 5 min, and centrifugation at 10,000 g for 5 min at 4 °C. The supernatants were transferred to glass vials for LC-MS/MS analysis. The half-life was estimated based on the area under the curve (AUC) through regression analysis of the concentration decay over time. This calculation was performed using the following formula: t1/2=LN2/Kel
(§3) Where LN is the neperian logarithm, and K is the slope of the regression of the LN of AUC as a function of time. Then, the microsomal intrinsic clearance (CLint, mic) was calculated using the following equation: CLint.mic=LN2/t1/2 x VI/PM
(§4) Where V is the incubation volume (µL), and PM is the microsomal protein concentration (mg). This intrinsic clearance can be extrapolated to the whole liver (CLint,hep) using the following equation: CLint.hep=CLint.mic x ML x LB
(§5) ML is the microsomal yield, and LB is the liver weight (g) per kilogram of body weight.
(§6) To ensure the linearity of the elimination phase and to avoid the influence of points outside the log-linear range, the points deviated from the expected first-order kinetic profile were excluded. The supernatants were analyzed by UPLC-Xevo-TQ-XS from Waters. Chromatographic separation was performed on an Acquity UPLC BEH C18 column (2.1 × 100 mm, 1.7 µm particle size), maintained at 40 °C. The mobile phases were (A) water with 0.1% formic acid and (B) acetonitrile with 0.1% formic acid. […] The total run time was 5 min.

[4] = Metabolic stability in rat liver microsomes; type: in vitro ADME; settings: for half-life at 1 μM / microsomal CLint at 1 μM: Sprague-Dawley, pH 7.4, rat liver microsomes; for half-life at 1 μM: 0.25 mg/mL, read-out: T1/2 rat; for microsomal CLint at 1 μM: read-out: CL int. mic.; for parent compound remaining: rat microsomes
Method: as §2, §3, §4, §5, §6

in vitro = in vitro ADME; settings: for Papp at 5 h, 100 μM: PAMPA
Method: The parallel artificial membrane permeability assay (PAMPA) was performed using a 96-well pre-coated plate system (Corning® BioCoat™ PAMPA Plate System). […] A total of 200 µL of each solution was added to donor wells, while 300 µL of PBS was placed in the corresponding acceptor wells. The plates were assembled and incubated at 37 °C for 5 h. Aliquots of the initial donor solution (T0) were collected before incubation and stored at −20 °C. At the end of the incubation, samples from donor and acceptor compartments were transferred to tubes containing 30% (v/v) acetonitrile and processed under identical conditions. Compound concentrations in donor, acceptor, and T0 samples were quantified by high-performance liquid chromatography with ultraviolet detection (HPLC-UV) using validated chromatographic conditions. The apparent permeability coefficient (Papp) was calculated using the standard PAMPA equation, shown below. All experiments were performed in a trplicate.
The Papp equation is: Papp=−VD+VA/At VD+VAln 1−CA t/Ceq

Stability in HBSS buffer = type: physicochemical; settings: 37°C, 2 hours
Method: The compounds were evaluated for chemical stability in Hanks’ Balanced Salt Solution (HBSS) over a 2-hour incubation period at 37°C. Stock solutions prepared in DMSO were diluted in HBSS to the desired test concentration. Samples were collected at time zero and after 2 hours of incubation. The remaining concentration of each compound was quantified by HPLC-UV, with stability assessed by comparing the percentage of compound remaining after 2 hours relative to the initial concentration.

[5] = Lipophilicity assay (LogD at pH 7.4), shake flask; type: physicochemical; settings: pH 7.4, n-octanol/phosphate buffer
[6] = system: T. cruzi Dm28c strain intracellular form infecting H9c2 rat cardiomyoblasts; assay: T. cruzi intracellular image-based assay; type: cell-based, Trypanosoma cruzi; settings: for SI: Selectivity index; for EC50: host cells infected by T. cruzi amastigotes, 72 h treatment
Method: Tested compounds were dissolved and serially diluted in dimethylsulfoxide (DMSO) using a half-log dilution across six concentrations. Intermediate plates were prepared by diluting compounds 1:25 in DMEM (Dulbecco’s Modified Eagle Medium) with 10% FBS (Fetal Bovine Serum). The assay was based on [Fredo Naciuk et al. (2020)], with minor modifications. Briefly, T. cruzi trypomastigotes (from LLC-MK2 cultures, 6 days post-infection) were used to infect H9c2 rat cardiomyoblasts overnight (16–18 h) at MOI 1. After washing with PBS, cells were trypsinized and resuspended in DMEM at 2.3 × 10^4 cells/mL. Then, 65 μL per well was plated in 384-well plates and incubated for 24 h (37 °C, 5% CO2, >95% humidity). Subsequently, 7.5 μL of compound solution was added (final [DMSO] 0.4%). After 72 h of treatment, cells were fixed with 4% PFA and stained with Hoechst 33342 (4 μg/mL). Six images per well were acquired using the Operetta system (PerkinElmer) and analyzed with Columbus software to quantify infected cells (≥3 cytoplasmic parasite spots).

[7] = pH 5.5, PAMPA pH 5,5 Papp - lower
[8] = pH 5.5, PAMPA pH 5,5 Papp - upper
[9] = pH 7.4, PAMPA pH 7,4 Papp - lower
[10] = pH 7.4, PAMPA pH 7,4 Papp - upper

Papp at 120 min, 0.1 mM [1]	IC50 [2]	half-life at 1 μM [3]	parent compound remaining ([3]; 15 min)	half-life at 1 μM [4]	microsomal CLint at 1 μM [4]	Papp at 5 h, 100 μM (in vitro; [7])	Papp at 5 h, 100 μM (in vitro; [8])	Papp at 5 h, 100 μM (in vitro; [9])	Papp at 5 h, 100 μM (in vitro; [10])	chemical stability in HBSS buffer (in words) (Stability in HBSS buffer)	logD at 90 min [5]	SMILES	Caco-2 permeability classification (in words) (Caco-2 cells)	SI [6]	other results
20.7 ×10⁻⁶ cm/s	7000 nM	2 min	less than 1%	9 min	61 µL/min/mg	3.4 ×10⁻⁶ cm/s	4.4 ×10⁻⁶ cm/s	9.1 ×10⁻⁶ cm/s	9.6 ×10⁻⁶ cm/s	remained chemically stable	3	CC(C)Oc1ccc(NS(=O)(=O)c2cccc(NC(=O)c3cnccn3)c2)cc1 [AC-M110, N-(3-(N-(4-isopropoxyphenyl)sulfamoyl)phenyl)pyrazine-2-carboxamide]	approaching high permeability classification	9092	microsomal CLint at 1 μM ([3]; CD-1, mouse, liver microsomes, pH 7.4, mouse liver microsomes, read-out: CL int. mic.): 339 µL/min/mg; CL int. hep. ([3]; mouse, extrapolated to the whole liver): 1370 mL/min/kg; PAMPA Papp at pH 5.5 (in vitro; pH 5.5): 3.4–4.5 × 10^−6
9.71 ×10⁻⁶ cm/s	500 nM	3 min	less than 1%	10 min	55 µL/min/mg	40.5 ×10⁻⁶ cm/s	56 ×10⁻⁶ cm/s	92 ×10⁻⁶ cm/s	86 ×10⁻⁶ cm/s	remained chemically stable	2.5	COc1ccc(NS(=O)(=O)c2cccc(NC(=O)c3cnccn3)c2)cc1 [AC-R008, N-(3-(N-(4-methoxyphenyl)sulfamoyl)phenyl)pyrazine-2-carboxamide]	near the lower limit for moderate permeability	108	parent compound remaining ([3]; 5 min): 5%; parent compound remaining ([4]; 5 min): 55%; parent compound remaining ([4]; 60 min): about 1%; Papp at 5 h, 100 μM (in vitro; pH 7.4, PAMPA Papp at pH 7.4): 92 ×10⁻⁶ cm/s; EC50 ([6]; Trypanosoma cruzi, H9c2, 72 h): 920 nM; EC50 [6]: < 1000 nM
